This note sets out measurements from ChEMBL document CHEMBL1201862, “PubChem BioAssay data set” (2004).

Some test systems named below: 786-0; BT-549; DU-145; HCT-116; HOP-92; IGROV-1; MDA-MB-231; MDA-MB-435; MOLT-4; NCI-H226; NCI-H23; NCI-H460; PC-3; RPMI-8226; SF-268; SNB-19; SW-620; U-251; UACC-257; LOX IMVI.
What all share (assay): inhibition of tumour cell growth, NCI panel, 48 h

Structures can show the parent of a compound that is named as a salt.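 Dose response: 5 concentrations. Exposure: 48 h. Format: 96-well plates. Endpoint: linear interpolation; highest concentration if not reached. Here, GI50 denotes the concentration required for 50% inhibition of growth.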 The source made the active and inactive calls. Rule as the data show it: active = GI50 up to about 1.1 µM and inactive = higher.

Take `CCN(CC)CCn1c(=O)c2cccnc2n2c3c(=O)n(C)c(=O)n(C)c3nc12`: the GI50 in the experiment with 786-0 was > 100 µM (inactive); in the experiment on BT-549 it was > 100 µM (inactive); with DU-145 it was > 100 µM (inactive); in the experiment on HCT-116 it was 47.8 µM (inactive); with HOP-92, > 100 µM (inactive); with IGROV-1, > 100 µM (inactive). Also, the GI50 in the experiment with MDA-MB-231 is > 100 µM (inactive); in the experiment with MDA-MB-435, > 100 µM (inactive); in the experiment with MOLT-4, 34.7 µM (inactive); with NCI-H226, 95.1 µM (inactive); in the experiment with NCI-H23, > 100 µM (inactive); in the experiment on NCI-H460 it was 36.6 µM (inactive). In addition, the GI50 in the experiment with PC-3 is > 100 µM (inactive); with RPMI-8226 it was > 100 µM (inactive); in the experiment with SF-268, > 100 µM (inactive); in the experiment with SNB-19 it was > 100 µM (inactive); in the experiment with SW-620, 76.9 µM (inactive); in the experiment on U-251, > 100 µM (inactive). For the same compound, the GI50 with UACC-257 was > 100 µM (inactive).
For `COc1ccc(-c2cc(-c3cc(C)cc(Br)c3O)no2)cc1`, the GI50 with 786-0 was 12 µM (inactive); in the experiment with BT-549, 14.9 µM (inactive); with DU-145 it was 16.6 µM (inactive); in the experiment with HCT-116, 10.3 µM (inactive); in the experiment on IGROV-1 it was 10.8 µM (inactive); with LOX IMVI it was 6.03 µM (inactive). The GI50 in the experiment on MDA-MB-231 was 12.4 µM (inactive); in the experiment with MDA-MB-435 it was 15.9 µM (inactive); in the experiment with MOLT-4, 13.5 µM (inactive); in the experiment with NCI-H226, 5.18 µM (inactive); in the experiment on NCI-H23 it was 14.7 µM (inactive); in the experiment with NCI-H460, 5.58 µM (inactive). The GI50 in the experiment on PC-3 was 4.44 µM (inactive); with RPMI-8226, 11.2 µM (inactive); in the experiment on SF-268, 4.17 µM (inactive); with SNB-19 it was 10.5 µM (inactive); with SW-620 it was 16.3 µM (inactive); with U-251, 5.66 µM (inactive). Besides, the GI50 in the experiment with UACC-257 was 11 µM (inactive).
Take `COC(=O)/C=C/c1ccc2nncnc2c1.COC(=O)/C=C\c1ccc2nncnc2c1`: the GI50 in the experiment with 786-0 was > 100 µM (inactive); in the experiment on BT-549, 60.8 µM (inactive); in the experiment with DU-145, 28.7 µM (inactive); in the experiment with HCT-116, 81.5 µM (inactive); in the experiment with IGROV-1, 85.5 µM (inactive); in the experiment with LOX IMVI, 33.9 µM (inactive). Further, the GI50 with MDA-MB-231 is > 100 µM (inactive); in the experiment on MDA-MB-435, 17.9 µM (inactive); in the experiment on MOLT-4, 55.6 µM (inactive); with NCI-H226, > 100 µM (inactive); in the experiment on NCI-H23 it was 10 µM (inactive); in the experiment on NCI-H460, 10 µM (inactive). Also, the GI50 in the experiment on PC-3 was 34.7 µM (inactive); in the experiment with RPMI-8226, > 100 µM (inactive); with SF-268 it was 75.7 µM (inactive); in the experiment on SNB-19, 57.4 µM (inactive); in the experiment with SW-620, 87.9 µM (inactive); in the experiment on U-251, 79.1 µM (inactive). For the same compound, the GI50 in the experiment on UACC-257 is 16.9 µM (inactive).
With `CCOP(=O)(OCC)/C(F)=C/c1ccccc1`, the GI50 in the experiment with 786-0, in the experiment on BT-549, in the experiment on DU-145, in the experiment with HCT-116, with HOP-92 and with IGROV-1 was > 100 µM (inactive) each time. Moreover, the GI50 with LOX IMVI, in the experiment on MDA-MB-231, in the experiment with MDA-MB-435, in the experiment on MOLT-4, in the experiment with NCI-H23 and in the experiment on NCI-H460 was > 100 µM (inactive) in each case. Further, the GI50 in the experiment on PC-3, with RPMI-8226, in the experiment with SF-268, with SNB-19, in the experiment on SW-620 and in the experiment with U-251 was > 100 µM (inactive) in each case. The GI50 in the experiment with UACC-257 is > 100 µM (inactive).
In the case of `Cc1cn(C2CC(O)C(CO[Si](C)(C)C(C)(C)C)OC2OC(C)C)c(=O)[nH]c1=O` (stereo unspecified), the GI50 was 16.6 µM (inactive) with 786-0; 44.9 µM (inactive) in the experiment on BT-549; > 100 µM (inactive) in the experiment on DU-145; 16.5 µM (inactive) in the experiment on HCT-116; 32.2 µM (inactive) with HOP-92; 29.8 µM (inactive) with IGROV-1. Besides, the GI50 in the experiment with LOX IMVI was 18.5 µM (inactive); with MDA-MB-231 it was 35.2 µM (inactive); with MDA-MB-435 it was 60 µM (inactive); in the experiment on NCI-H226 it was 41.9 µM (inactive); with NCI-H23, 39.6 µM (inactive); in the experiment on NCI-H460, 31.6 µM (inactive). Moreover, the GI50 with PC-3 is 33.6 µM (inactive); in the experiment with RPMI-8226 it was 37.7 µM (inactive); in the experiment with SF-268, 51.3 µM (inactive); in the experiment with SNB-19, 74.8 µM (inactive); with SW-620, 49.4 µM (inactive); in the experiment on U-251, 39.3 µM (inactive). The GI50 with UACC-257 is 34.6 µM (inactive).
For `Cc1cc(S(=O)(=O)NC(=C(C#N)C#N)[n+]2ccc(N(C)C)cc2)c([S-])cc1Cl`, the GI50 in the experiment on 786-0 is > 100 µM (inactive); in the experiment on BT-549 it was > 100 µM (inactive); in the experiment on DU-145, > 100 µM (inactive); in the experiment with HCT-116 it was > 100 µM (inactive); in the experiment on HOP-92, 28.7 µM (inactive); with IGROV-1 it was > 100 µM (inactive). Also, the GI50 with MDA-MB-231, with MDA-MB-435, in the experiment on MOLT-4, in the experiment with NCI-H226, in the experiment with NCI-H23 and in the experiment with NCI-H460 was > 100 µM (inactive) each time. The GI50 in the experiment on PC-3, with RPMI-8226, in the experiment with SF-268, with SNB-19, in the experiment with U-251 and with UACC-257 was > 100 µM (inactive) throughout.
Turning to `COc1ccc(CCNC(=O)Cc2ccccc2CCO)cc1OC`, the GI50 in the experiment with 786-0, in the experiment on BT-549, with DU-145, in the experiment on HCT-116, in the experiment with HOP-92 and with IGROV-1 was > 100 µM (inactive) each time. Moreover, the GI50 was 38.8 µM (inactive) with MDA-MB-231; > 100 µM (inactive) in the experiment on MDA-MB-435; > 100 µM (inactive) with MOLT-4; > 100 µM (inactive) with NCI-H226; > 100 µM (inactive) with NCI-H23; > 100 µM (inactive) in the experiment with NCI-H460. The GI50 in the experiment on PC-3 was > 100 µM (inactive); with RPMI-8226, > 100 µM (inactive); with SF-268, > 100 µM (inactive); in the experiment on SNB-19, 27.4 µM (inactive); in the experiment on SW-620, > 100 µM (inactive); in the experiment on U-251, > 100 µM (inactive). Moreover, the GI50 with UACC-257 is > 100 µM (inactive).
Consider `CC(=O)O[C@H]1C[C@H]2[C@@H]([C@H](OC(C)=O)C[C@@H]3CC4(CC[C@@]32C)OOC2(CCCCC2)OO4)[C@@H]2CC[C@H]([C@H](C)CCC(N)=O)[C@@]12C`, for which the GI50 with 786-0 is 1.81 µM (inactive); in the experiment on BT-549, 2.07 µM (inactive); with DU-145 it was 1.93 µM (inactive); with HCT-116 it was 3.13 µM (inactive); in the experiment with IGROV-1 it was 0.134 µM (active); with LOX IMVI, 1 µM (active). Also, the GI50 was 1.95 µM (inactive) in the experiment with MDA-MB-231; 1.65 µM (inactive) with MDA-MB-435; 0.881 µM (active) with MOLT-4; 2.46 µM (inactive) in the experiment on NCI-H226; 1 µM (active) in the experiment with NCI-H23; 1.93 µM (inactive) with NCI-H460. Further, the GI50 in the experiment with PC-3 is 1.62 µM (inactive); in the experiment on RPMI-8226, 0.726 µM (active); with SF-268, 1.66 µM (inactive); with SNB-19, 5.85 µM (inactive); in the experiment with SW-620, 2.42 µM (inactive); in the experiment with U-251, 1.51 µM (inactive). Also, the GI50 in the experiment on UACC-257 is 5.62 µM (inactive).
Regarding `O=C(/C=C/c1ccc(O)c(-c2cc(C(=O)/C=C/c3ccc(O)cc3)c(O)cc2O)c1)c1ccc(O)cc1O` [RHUSCHALCONE VI], the GI50 in the experiment on 786-0 was 47.6 µM (inactive); in the experiment on BT-549, 15.5 µM (inactive); with DU-145, 40.5 µM (inactive); in the experiment on HCT-116, 11.5 µM (inactive); with HOP-92, 24.6 µM (inactive); in the experiment on IGROV-1 it was 24.5 µM (inactive). In addition, the GI50 in the experiment with LOX IMVI is 14.5 µM (inactive); with MDA-MB-231, 29.7 µM (inactive); in the experiment on MDA-MB-435, 21.4 µM (inactive); in the experiment on MOLT-4 it was 16.1 µM (inactive); with NCI-H23 it was 23.9 µM (inactive); in the experiment on NCI-H460, > 50 µM (inactive). Besides, the GI50 in the experiment on PC-3 is 22.5 µM (inactive); in the experiment on RPMI-8226 it was 18.6 µM (inactive); in the experiment with SF-268, 17.5 µM (inactive); in the experiment with SNB-19, 28.6 µM (inactive); with SW-620 it was 19.5 µM (inactive); in the experiment on U-251 it was 15.8 µM (inactive). Besides, the GI50 in the experiment on UACC-257 was > 50 µM (inactive).
As for `CN1[C@@H]2C[C@@H](OC(=O)[C@H](CO)c3ccccc3)C[C@H]1[C@@H]1O[C@@H]12` [SCOPOLAMINE HYDROBROMIDE], the GI50 with 786-0, in the experiment on BT-549, in the experiment on DU-145, with HCT-116, in the experiment with HOP-92 and with IGROV-1 was > 100 µM (inactive) each time. The GI50 with LOX IMVI, with MDA-MB-231, in the experiment with MDA-MB-435, with MOLT-4, in the experiment with NCI-H226 and in the experiment with NCI-H23 was > 100 µM (inactive) in each case. Also, the GI50 with PC-3, with RPMI-8226, with SW-620 and in the experiment on UACC-257 was > 100 µM (inactive) in each case.
